Assay: Example 3: phase 3 trial, enavogliflozin 0.3 mg vs dapagliflozin 10 mg once a day for 24 weeks added to metformin and gemigliptin in patients with type 2 diabetes (same endpoints, rescue drug)
Format: in vivo, human
Conditions: week 6
Protocol: 1) when Metformin (≥1,000 mg/Day) was Administered at a Constant Dose for at Least 8 Weeks Prior to Pre-Visit (Pre-Screening) • Metformin (≥1,000 mg/day) and gemigliptin (50 mg/day) were co-administered during the 8-week stabilization period. […] 4) when Metformin (≥1,000 mg/Day) and Gemigliptin (50 mg/Day) were Co-Administered at Constant Doses for at Least 8 Weeks Prior to Pre-Visit (Prescreening) • Without a separate stabilization period, Pre-visit (pre-screening) was Visit 1 (screening).
Subjects who met the inclusion/exclusion criteria continued to receive metformin and gemigliptin while receiving a placebo of the clinical trial drug in a single-blind (subject-blinded) state for a 2-week run-in period.
Here, the randomized subjects were stratified according to the administration therapy (co-administration with two or less agents (one or two agents) or three or more agents) of a conventional hypoglycemic agent (before washout of another hypoglycemic agent) within 24 weeks prior to obtaining written informed consent and by an HbA1c value (<8% or ≥8%) at Visit 1 (screening) measured in the central laboratory.
The randomized subjects were administered two tablets of the clinical trial drug corresponding to each administration group once a day, and then visited the institution at weeks 6, 12, 18, and 24 during the 24-week administration period to conduct efficacy and safety assessments. In addition, during the clinical trial period, they were instructed to exercise regularly and control their diet without changing their daily life patterns.
• 1) Change in HbA1c at week 24 after administration of clinical trial drug compared to Visit 2 (randomization)
• 1) Change in HbA1c at each time point of weeks 6, 12, and 18 after administration of clinical trial drug compared to Visit 2 (randomization) • 2) Change in FPG at each time point of weeks 6, 12, 18, and 24 after administration of clinical trial drug compared to Visit 2 (randomization) • 3) Proportion of subjects achieving HbA1c<7% at each time point of weeks 6, 12, 18, and 24 after administration of clinical trial drug • 4) Proportion of subjects achieving HbA1c<6.5% at each time point of weeks 6, 12, 18, and 24 after administration of clinical trial drug • 5) Proportion of subjects achieving therapeutic response (HbA1c change (HbA1c at Visit 2—HbA1c at each evaluation time point)>0.5% or HbA1c<7% at each evaluation time point compared to Visit 2 (randomization)) at each time point of weeks 6, 12, 18, and 24 after administration of clinical trial drug • 6) Proportion of subjects achieving therapeutic response (HbA1c change (HbA1c at Visit 2—HbA1c at each evaluation time point)>0.7% or HbA1c<7% at each evaluation time point compared to Visit 2 (randomization)) at each time point of weeks 6, 12, 18, and 24 after administration of clinical trial drug • 7) Proportion of subjects achieving therapeutic response (HbA1c change (HbA1c at Visit 2—HbA1c at each evaluation time point)>1% or HbA1c<7% at each evaluation time point compared to Visit 2 (randomization)) at each time point of weeks 6, 12, 18, and 24 after administration of clinical trial drug

[1] = modified per-protocol set 2, enavogliflozin 0.3 mg, dapagliflozin 10 mg
[2] = per-protocol set, enavogliflozin 0.3 mg vs dapagliflozin 10 mg
[3] = per-protocol set, enavogliflozin 0.3 mg, dapagliflozin 10 mg

In the case of `OC[C@H]1O[C@@H](c2cc(Cc3ccc(C4CC4)cc3)c(Cl)c3c2CCO3)[C@H](O)[C@@H](O)[C@@H]1O` [Enavogliflozin, (2S,3R,4R,5S,6R)-2-(7-chloro-6 (4-cyclopropylbenzyl)-2,3-dihydrobenzofuran-4-yl)-6-(hydroxymethyl)tetrahydro-2H-pyran-3,4,5-triol], the “Change from baseline in diastolic blood pressure, ANCOVA LS mean” value (modified per-protocol set 2) is reported as −2.04 mmHg, the “Change from baseline in diastolic blood pressure, LS mean difference (enavogliflozin − dapagliflozin)” value (modified per-protocol set 2) is reported as −0.16 mmHg and the “Change from baseline in diastolic blood pressure, Mean” value (modified per-protocol set 2) is reported as −2.76 mmHg. The “Change from baseline in diastolic blood pressure, Median” value (modified per-protocol set 2) was −3.00 mmHg, the “Diastolic blood pressure, Mean” value (modified per-protocol set 2) was 73.72 mmHg and the “Diastolic blood pressure, Median” value (modified per-protocol set 2) was 74.00 mmHg. For the same compound, the “Change from baseline in systolic blood pressure, ANCOVA LS mean difference” value (modified per-protocol set 2, enavogliflozin 0.3 mg vs dapagliflozin 10 mg) was 0.73 mmHg, the “Change from baseline in systolic blood pressure, ANCOVA LS mean” value [1] was −2.76 mmHg and the “Change from baseline in systolic blood pressure, Mean” value [1] was −3.67 mmHg. The “Change from baseline in systolic blood pressure, Median” value [1] was −3.00 mmHg, the “Systolic blood pressure, Mean” value [1] was 124.04 mmHg and the “Systolic blood pressure, Median” value [1] was 123.00 mmHg. The “Adiponectin, Mean” value (per-protocol set) was 6.20 µg/mL, the “Adiponectin, Median” value (per-protocol set) was 5.40 µg/mL and the “Change from baseline in HOMA-IR, ANCOVA LS mean” value (per-protocol set) was −0.94. The “Change from baseline in HOMA-IR, LS mean difference (enavogliflozin − dapagliflozin)” value (per-protocol set) was 0.05, the “Change from baseline in HOMA-IR, Mean” value (per-protocol set) was −0.90 and the “Change from baseline in HOMA-IR, Median” value (per-protocol set) was −0.68. The “Change from baseline in HOMA-β, ANCOVA LS mean” value (per-protocol set) was 8.13, the “Change from baseline in HOMA-β, LS mean difference (enavogliflozin − dapagliflozin)” value (per-protocol set) was 4.93 and the “Change from baseline in HOMA-β, Mean” value (per-protocol set) was 8.74. The “Change from baseline in HOMA-β, Median” value (per-protocol set) was 4.35, the “Change from baseline in UACR, ANCOVA LS mean” value (per-protocol set) was -8.76 g/kg and the “Change from baseline in UACR, LS mean difference (enavogliflozin − dapagliflozin)” value (per-protocol set) was 6.09 g/kg. For the same compound, the “Change from baseline in UACR, Mean” value (per-protocol set) was -11.43 g/kg, the “Change from baseline in UACR, Median” value (per-protocol set) was -0.50 g/kg and the “Change from baseline in UGCR, ANCOVA LS mean” value (per-protocol set) was 58.10 mg/mg. The “Change from baseline in UGCR, LS mean difference (enavogliflozin − dapagliflozin)” value (per-protocol set) was 12.35 mg/mg, the “Change from baseline in UGCR, Mean” value (per-protocol set) was 56.38 mg/mg and the “Change from baseline in UGCR, Median” value (per-protocol set) was 54.10 mg/mg. The “Change from baseline in adiponectin, ANCOVA LS mean” value (per-protocol set) was -0.10 µg/mL, the “Change from baseline in adiponectin, LS mean difference (enavogliflozin − dapagliflozin)” value (per-protocol set) was -0.47 µg/mL and the “Change from baseline in adiponectin, Mean” value (per-protocol set) was -0.08 µg/mL. For the same compound, the “Change from baseline in adiponectin, Median” value (per-protocol set) was 0.50 µg/mL, the “Change from baseline in leptin, ANCOVA LS mean” value (per-protocol set) was -1.83 ng/mL and the “Change from baseline in leptin, LS mean difference (enavogliflozin − dapagliflozin)” value (per-protocol set) was 0.20 ng/mL. The “Change from baseline in leptin, Mean” value (per-protocol set) was -1.75 ng/mL, the “Change from baseline in leptin, Median” value (per-protocol set) was -0.94 ng/mL and the “HOMA-IR (insulin resistance), Mean” value (per-protocol set) was 2.00. For the same compound, the “HOMA-IR (insulin resistance), Median” value (per-protocol set) was 1.54, the “HOMA-β (beta-cell function), Mean” value (per-protocol set) was 51.08 and the “HOMA-β (beta-cell function), Median” value (per-protocol set) was 38.70. The “Leptin, Mean” value (per-protocol set) was 8.88 ng/mL, the “Leptin, Median” value (per-protocol set) was 6.26 ng/mL and the “UACR, Mean” value (per-protocol set) was 36.67 g/kg. For the same compound, the “UACR, Median” value (per-protocol set) was 14.80 g/kg, the “UGCR, Mean” value (per-protocol set) was 57.09 mg/mg and the “UGCR, Median” value (per-protocol set) was 54.57 mg/mg. The “Achieving HbA1c target of <6.5%, odds ratio (logistic regression model)” value [2] was 0.65, the “Achieving HbA1c target of <7%, odds ratio (logistic regression model)” value [2] was 1.22 and the “Change from baseline in FPG, ANCOVA LS mean difference” value [2] was -3.24 mg/dL. The “Change from baseline in HbA1c, ANCOVA LS mean difference” value [2] was −0.03 % p, the “Change from baseline in body weight, ANCOVA LS mean difference” value [2] was -0.13 kg and the “Change from baseline in fasting C-peptide, ANCOVA LS mean difference” value [2] was -0.01 ng/mL. For the same compound, the “Therapeutic glycemic response 1, odds ratio (logistic regression model)” value [2] was 1.52, the “Therapeutic glycemic response 2, odds ratio (logistic regression model)” value [2] was 1.16 and the “Therapeutic glycemic response 3, odds ratio (logistic regression model)” value [2] was 1.38. For the same compound, the “Body weight, Mean” value [3] was 67.13 kg, the “Change from baseline in FPG, ANCOVA LS mean” value [3] was -25.96 mg/dL and the “Change from baseline in FPG, Mean” value [3] was -25.72 mg/dL. For the same compound, the “Change from baseline in FPG, Median” value [3] was -24.50 mg/dL, the “Change from baseline in HbA1c, ANCOVA LS mean” value [3] was −0.73 % p and the “Change from baseline in HbA1c, Mean” value [3] was −0.74 % p. The “Change from baseline in HbA1c, Median” value [3] was −0.65 % p, the “Change from baseline in body weight, ANCOVA LS mean” value [3] was -1.92 kg and the “Change from baseline in body weight, Mean” value [3] was -1.87 kg. For the same compound, the “Change from baseline in body weight, Median” value [3] was -1.90 kg, the “Change from baseline in fasting C-peptide, ANCOVA LS mean” value [3] was -0.05 ng/mL and the “Change from baseline in fasting C-peptide, Mean” value [3] was -0.06 ng/mL. For the same compound, the “Change from baseline in fasting C-peptide, Median” value [3] was -0.07 ng/mL, the “FPG, Mean” value [3] was 114.21 mg/dL and the “FPG, Median” value [3] was 113.00 mg/dL.
